ChEMBL document CHEMBL5723585, “Data for DCP probe JNJ-54082730” (2024)

Experiments:
Rattus norvegicus [1] = species: Rattus norvegicus; experiment: SKCa channel Eurofins-Cerep binding assay; assay type: protein assay; set-up: ligand concentration 0.007 nM; settings: filed as antagonist, Compound concentration 10.0 uM
[2] = molecular target: Adenosine receptor A1 (Homo sapiens) (UniProt P30542); experiment: A1 Eurofins-Cerep binding assay; set-up: ligand concentration 1 nM; settings: filed as antagonist, Compound concentration 10.0 uM
[3] = molecular target: Melatonin receptor type 1A (Homo sapiens) (UniProt P48039); experiment: MT1 (ML1A) Eurofins-Cerep binding assay; set-up: ligand concentration 0.01 nM; settings: filed as agonist, Compound concentration 10.0 uM
Phosphodiesterase 3 = Phosphodiesterase 3 (Homo sapiens, UniProt Q14432+Q13370); experiment: IC50 of hPDE3 in the PDE screen at 1.0 µM; assay type: protein assay
[4] = molecular target: Neurotensin receptor type 1 (Homo sapiens) (UniProt P30989); experiment: NTS1 (NT1) Eurofins-Cerep binding assay; set-up: ligand concentration 0.05 nM; settings: filed as agonist, Compound concentration 10.0 uM
[5] = molecular target: Muscarinic acetylcholine receptor M2 (Homo sapiens) (UniProt P08172); experiment: M2 Eurofins-Cerep binding assay; set-up: ligand concentration 2 nM; settings: filed as antagonist, Compound concentration 10.0 uM
[6] = molecular target: B2 bradykinin receptor (Homo sapiens) (UniProt P30411); experiment: B2 Eurofins-Cerep binding assay; set-up: ligand concentration 0.3 nM; settings: filed as agonist, Compound concentration 10.0 uM
[7] = molecular target: Neuropeptide Y receptor type 1 (Homo sapiens) (UniProt P25929); experiment: Y1 Eurofins-Cerep binding assay; set-up: ligand concentration 0.025 nM; settings: filed as agonist, Compound concentration 10.0 uM
[8] = molecular target: C-X-C chemokine receptor type 2 (Homo sapiens) (UniProt P25025); experiment: CXCR2 (IL-8B) Eurofins-Cerep binding assay; settings: filed as agonist, Compound concentration 10.0 uM
[9] = molecular target: Dual specificity calcium/calmodulin-dependent 3',5'-cyclic nucleotide phosphodiesterase 1B (Homo sapiens, UniProt Q01064); experiment: IC50 of hPDE1B1 in the PDE screen at 1.0 µM
[10] = molecular target: cGMP-specific 3',5'-cyclic phosphodiesterase (Homo sapiens, UniProt O76074); experiment: IC50 of hPDE5A3 in the PDE screen at 1.0 µM
Rattus norvegicus [11] = species: Rattus norvegicus; experiment: alpha 2 (non-selective) Eurofins-Cerep binding assay; assay type: protein assay; set-up: ligand concentration 1 nM; settings: filed as antagonist, Compound concentration 10.0 uM
[12] = molecular target: Type-1 angiotensin II receptor (Homo sapiens) (UniProt P30556); experiment: AT1 Eurofins-Cerep binding assay; settings: filed as antagonist, Compound concentration 10.0 uM
Rattus norvegicus [13] = species: Rattus norvegicus; experiment: BZD (central) Eurofins-Cerep binding assay; settings: filed as agonist, Compound concentration 10.0 uM
[14] = molecular target: Endothelin-1 receptor (Homo sapiens) (UniProt P25101); experiment: ETA Eurofins-Cerep binding assay; set-up: ligand concentration 0.03 nM; settings: filed as agonist, Compound concentration 10.0 uM
[15] = molecular target: Adenosine receptor A2a (Homo sapiens) (UniProt P29274); experiment: A2A Eurofins-Cerep binding assay; set-up: ligand concentration 6 nM; settings: filed as agonist, Compound concentration 10.0 uM
[16] = molecular target: 5-hydroxytryptamine receptor 2A (Homo sapiens) (UniProt P28223); experiment: 5-HT2A Eurofins-Cerep binding assay; set-up: ligand concentration 0.5 nM; settings: filed as antagonist, Compound concentration 10.0 uM
[17] = IC50 of bovine retina PDE6 in the PDE screen at 1.0 µM; set-up: species or system Bos taurus
[18] = molecular target: Histamine H2 receptor (Homo sapiens) (UniProt P25021); experiment: H2 Eurofins-Cerep binding assay; set-up: ligand concentration 0.075 nM; settings: filed as antagonist, Compound concentration 10.0 uM
[19] = molecular target: 5-hydroxytryptamine receptor 5A (Homo sapiens) (UniProt P47898); experiment: 5-HT5a Eurofins-Cerep binding assay; set-up: ligand concentration 1.5 nM; settings: filed as agonist, Compound concentration 10.0 uM
[20] = molecular target: Substance-K receptor (Homo sapiens) (UniProt P21452); experiment: NK2 Eurofins-Cerep binding assay; set-up: ligand concentration 0.1 nM; settings: filed as agonist, Compound concentration 10.0 uM
[21] = molecular target: Sodium-dependent dopamine transporter (Homo sapiens) (UniProt Q01959); experiment: dopamine transporter Eurofins-Cerep binding assay; settings: filed as antagonist, Compound concentration 10.0 uM
[22] = molecular target: Nociceptin receptor (Homo sapiens) (UniProt P41146); experiment: NOP (ORL1) Eurofins-Cerep binding assay; set-up: ligand concentration 0.06 nM; settings: filed as agonist, Compound concentration 10.0 uM
[23] = molecular target: Sodium-dependent serotonin transporter (Homo sapiens) (UniProt P31645); experiment: 5-HT transporter Eurofins-Cerep binding assay; set-up: ligand concentration 2 nM; settings: filed as antagonist, Compound concentration 10.0 uM
[24] = molecular target: Neuropeptide Y receptor type 2 (Homo sapiens) (UniProt P49146); experiment: Y2 Eurofins-Cerep binding assay; set-up: ligand concentration 0.015 nM; settings: filed as agonist, Compound concentration 10.0 uM
[25] = molecular target: GABA-A receptor; anion channel (Rattus norvegicus) (UniProt O09028+P15431+P18506+P18508+P19969+P20236+P23574+P23576+P28471+P28473+P30191+P62813+P63079+P63138+Q91ZM7+Q9ES14); experiment: GABA (non-selective) Eurofins-Cerep binding assay; assay type: protein-complex assay; set-up: ligand concentration 10 nM; settings: filed as agonist, Compound concentration 10.0 uM
[26] = molecular target: Galanin receptor type 2 (Homo sapiens) (UniProt O43603); experiment: GAL2 Eurofins-Cerep binding assay; set-up: ligand concentration 0.05 nM; settings: filed as agonist, Compound concentration 10.0 uM
[27] = molecular target: Melanocortin receptor 4 (Homo sapiens) (UniProt P32245); experiment: MC4 Eurofins-Cerep binding assay; set-up: ligand concentration 0.05 nM; settings: filed as agonist, Compound concentration 10.0 uM
[28] = molecular target: cAMP and cAMP-inhibited cGMP 3',5'-cyclic phosphodiesterase 10A (Homo sapiens, UniProt Q9Y233); experiment: IC50 of hPDE10A2 in the PDE screen at 1.0 µM
[29] = molecular target: Kappa-type opioid receptor (Homo sapiens) (UniProt P41145); experiment: kappa (KOP) Eurofins-Cerep binding assay; settings: filed as agonist, Compound concentration 10.0 uM
Kappa-type opioid receptor (Homo sapiens), sequence (P41145 whole entry): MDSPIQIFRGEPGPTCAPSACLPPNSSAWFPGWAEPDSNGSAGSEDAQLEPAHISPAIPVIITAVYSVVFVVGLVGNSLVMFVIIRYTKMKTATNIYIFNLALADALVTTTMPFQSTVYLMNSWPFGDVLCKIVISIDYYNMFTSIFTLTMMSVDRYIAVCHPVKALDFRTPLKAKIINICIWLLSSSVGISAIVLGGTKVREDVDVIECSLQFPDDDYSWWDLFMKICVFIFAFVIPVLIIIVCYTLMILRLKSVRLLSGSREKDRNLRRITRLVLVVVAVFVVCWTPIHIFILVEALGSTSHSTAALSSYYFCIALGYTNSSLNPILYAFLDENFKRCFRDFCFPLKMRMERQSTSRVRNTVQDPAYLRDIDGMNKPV

cAMP and cAMP-inhibited cGMP 3',5'-cyclic phosphodiesterase 10A, sequence (Q9Y233 whole entry): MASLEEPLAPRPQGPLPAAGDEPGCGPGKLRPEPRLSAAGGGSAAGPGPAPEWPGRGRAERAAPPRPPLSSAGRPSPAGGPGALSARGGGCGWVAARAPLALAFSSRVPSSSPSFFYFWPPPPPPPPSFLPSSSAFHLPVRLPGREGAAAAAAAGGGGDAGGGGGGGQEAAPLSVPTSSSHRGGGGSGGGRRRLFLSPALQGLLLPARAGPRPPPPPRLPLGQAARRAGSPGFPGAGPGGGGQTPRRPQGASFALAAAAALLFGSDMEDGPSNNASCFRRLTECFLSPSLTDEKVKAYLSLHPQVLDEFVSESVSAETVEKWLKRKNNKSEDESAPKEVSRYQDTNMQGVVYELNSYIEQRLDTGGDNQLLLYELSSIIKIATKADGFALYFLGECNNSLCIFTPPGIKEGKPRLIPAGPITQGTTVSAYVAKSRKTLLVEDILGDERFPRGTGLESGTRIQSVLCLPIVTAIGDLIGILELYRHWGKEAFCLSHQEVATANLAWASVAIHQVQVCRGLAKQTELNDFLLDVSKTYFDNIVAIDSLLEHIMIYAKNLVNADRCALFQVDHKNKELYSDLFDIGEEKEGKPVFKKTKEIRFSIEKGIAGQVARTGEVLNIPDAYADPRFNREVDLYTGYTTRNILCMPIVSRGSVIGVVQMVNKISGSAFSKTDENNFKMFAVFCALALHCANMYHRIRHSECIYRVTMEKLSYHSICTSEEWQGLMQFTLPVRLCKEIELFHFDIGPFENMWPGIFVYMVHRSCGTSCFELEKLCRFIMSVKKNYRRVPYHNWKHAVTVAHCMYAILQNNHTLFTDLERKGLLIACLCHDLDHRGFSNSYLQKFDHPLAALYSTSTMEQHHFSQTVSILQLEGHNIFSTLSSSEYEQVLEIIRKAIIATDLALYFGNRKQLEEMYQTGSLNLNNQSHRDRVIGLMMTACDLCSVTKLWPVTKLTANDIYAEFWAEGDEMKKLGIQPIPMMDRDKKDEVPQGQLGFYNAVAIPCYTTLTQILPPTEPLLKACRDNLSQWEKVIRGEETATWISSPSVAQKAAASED
Neuropeptide Y receptor type 2 (Homo sapiens), sequence (P49146 whole entry): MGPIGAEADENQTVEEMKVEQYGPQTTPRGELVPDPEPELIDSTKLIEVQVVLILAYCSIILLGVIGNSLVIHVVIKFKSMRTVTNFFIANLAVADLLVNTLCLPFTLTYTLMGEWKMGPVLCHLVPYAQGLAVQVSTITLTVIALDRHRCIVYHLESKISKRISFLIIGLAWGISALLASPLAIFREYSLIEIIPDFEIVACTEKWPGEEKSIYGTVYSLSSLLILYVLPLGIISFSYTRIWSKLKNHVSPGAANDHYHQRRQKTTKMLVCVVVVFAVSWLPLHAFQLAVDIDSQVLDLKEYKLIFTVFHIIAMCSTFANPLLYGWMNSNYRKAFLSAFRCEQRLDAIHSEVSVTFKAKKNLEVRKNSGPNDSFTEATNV
Muscarinic acetylcholine receptor M2 (Homo sapiens), sequence (P08172 whole entry): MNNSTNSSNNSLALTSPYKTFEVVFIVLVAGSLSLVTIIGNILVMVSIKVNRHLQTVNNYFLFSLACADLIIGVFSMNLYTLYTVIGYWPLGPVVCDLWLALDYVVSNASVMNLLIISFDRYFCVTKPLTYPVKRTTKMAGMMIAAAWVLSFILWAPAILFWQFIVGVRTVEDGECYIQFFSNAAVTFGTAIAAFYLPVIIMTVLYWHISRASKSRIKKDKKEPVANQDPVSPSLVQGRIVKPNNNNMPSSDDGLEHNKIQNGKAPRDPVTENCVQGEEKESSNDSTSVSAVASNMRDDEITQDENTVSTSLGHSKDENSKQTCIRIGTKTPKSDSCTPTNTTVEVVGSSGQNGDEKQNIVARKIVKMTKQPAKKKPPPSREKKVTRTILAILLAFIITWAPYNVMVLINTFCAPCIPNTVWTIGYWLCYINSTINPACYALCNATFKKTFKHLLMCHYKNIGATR
Neurotensin receptor type 1 (Homo sapiens), sequence (P30989 whole entry): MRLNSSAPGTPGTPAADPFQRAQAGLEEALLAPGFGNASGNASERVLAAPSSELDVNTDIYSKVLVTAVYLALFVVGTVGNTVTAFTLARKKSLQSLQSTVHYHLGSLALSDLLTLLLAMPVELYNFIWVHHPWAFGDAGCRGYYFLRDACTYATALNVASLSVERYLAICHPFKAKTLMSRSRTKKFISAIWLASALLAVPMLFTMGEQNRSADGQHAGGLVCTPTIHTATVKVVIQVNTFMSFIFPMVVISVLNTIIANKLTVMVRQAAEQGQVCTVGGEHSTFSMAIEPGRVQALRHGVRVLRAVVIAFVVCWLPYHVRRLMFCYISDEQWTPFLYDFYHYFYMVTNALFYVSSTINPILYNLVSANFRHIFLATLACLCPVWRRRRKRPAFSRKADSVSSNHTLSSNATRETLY
Melatonin receptor type 1A (Homo sapiens), sequence (P48039 whole entry): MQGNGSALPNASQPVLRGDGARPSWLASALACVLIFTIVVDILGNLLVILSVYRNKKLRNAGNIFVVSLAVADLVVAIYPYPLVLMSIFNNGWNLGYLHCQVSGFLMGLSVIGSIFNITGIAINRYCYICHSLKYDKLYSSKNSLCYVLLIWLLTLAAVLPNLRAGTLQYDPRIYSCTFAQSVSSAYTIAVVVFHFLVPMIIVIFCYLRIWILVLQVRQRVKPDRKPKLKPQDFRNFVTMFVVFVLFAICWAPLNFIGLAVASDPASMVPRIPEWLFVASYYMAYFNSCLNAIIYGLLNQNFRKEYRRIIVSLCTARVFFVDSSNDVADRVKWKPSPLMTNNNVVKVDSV
Dual specificity calcium/calmodulin-dependent 3',5'-cyclic nucleotide phosphodiesterase 1B, sequence (Q01064 whole entry): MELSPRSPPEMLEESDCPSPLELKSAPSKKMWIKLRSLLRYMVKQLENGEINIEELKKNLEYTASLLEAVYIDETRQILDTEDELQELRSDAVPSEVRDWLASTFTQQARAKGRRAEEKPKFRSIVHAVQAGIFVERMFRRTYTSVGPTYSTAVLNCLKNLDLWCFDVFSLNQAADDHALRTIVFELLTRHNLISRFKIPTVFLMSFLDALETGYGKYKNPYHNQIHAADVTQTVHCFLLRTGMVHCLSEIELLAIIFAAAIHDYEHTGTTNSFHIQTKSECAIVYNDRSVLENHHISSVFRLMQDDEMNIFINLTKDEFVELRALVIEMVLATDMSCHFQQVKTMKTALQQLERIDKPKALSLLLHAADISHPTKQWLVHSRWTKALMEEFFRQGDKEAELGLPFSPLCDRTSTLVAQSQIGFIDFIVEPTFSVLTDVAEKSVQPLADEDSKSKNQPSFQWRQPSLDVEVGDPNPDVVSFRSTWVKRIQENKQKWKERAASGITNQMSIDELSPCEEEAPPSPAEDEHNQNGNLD
Galanin receptor type 2 (Homo sapiens), sequence (O43603 whole entry): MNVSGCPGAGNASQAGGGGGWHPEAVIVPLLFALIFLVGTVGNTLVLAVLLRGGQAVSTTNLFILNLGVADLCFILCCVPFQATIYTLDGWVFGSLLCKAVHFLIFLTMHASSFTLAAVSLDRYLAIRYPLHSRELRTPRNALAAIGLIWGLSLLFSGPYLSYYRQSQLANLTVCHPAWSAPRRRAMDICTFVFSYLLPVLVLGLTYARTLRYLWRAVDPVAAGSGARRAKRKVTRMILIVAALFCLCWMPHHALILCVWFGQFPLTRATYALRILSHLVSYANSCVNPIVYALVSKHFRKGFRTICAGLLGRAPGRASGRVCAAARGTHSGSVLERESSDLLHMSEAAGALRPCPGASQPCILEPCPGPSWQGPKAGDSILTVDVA
Sodium-dependent dopamine transporter (Homo sapiens), sequence (Q01959 whole entry): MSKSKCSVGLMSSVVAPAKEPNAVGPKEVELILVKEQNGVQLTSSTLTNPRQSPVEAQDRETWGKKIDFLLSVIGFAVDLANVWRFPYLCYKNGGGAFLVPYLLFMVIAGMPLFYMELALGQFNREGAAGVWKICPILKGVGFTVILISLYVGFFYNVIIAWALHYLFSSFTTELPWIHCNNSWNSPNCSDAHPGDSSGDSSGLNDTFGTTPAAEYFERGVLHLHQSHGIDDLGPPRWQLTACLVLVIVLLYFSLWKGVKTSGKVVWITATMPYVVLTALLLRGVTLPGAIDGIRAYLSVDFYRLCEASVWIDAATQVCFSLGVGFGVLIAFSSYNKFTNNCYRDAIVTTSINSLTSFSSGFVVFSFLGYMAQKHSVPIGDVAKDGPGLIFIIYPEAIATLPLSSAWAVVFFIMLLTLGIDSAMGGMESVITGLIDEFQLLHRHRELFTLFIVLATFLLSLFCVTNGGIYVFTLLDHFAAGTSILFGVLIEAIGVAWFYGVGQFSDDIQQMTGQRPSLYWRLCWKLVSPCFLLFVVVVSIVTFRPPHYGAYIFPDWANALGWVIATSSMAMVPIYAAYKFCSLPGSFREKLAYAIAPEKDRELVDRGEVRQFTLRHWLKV
C-X-C chemokine receptor type 2 (Homo sapiens), sequence (P25025 whole entry): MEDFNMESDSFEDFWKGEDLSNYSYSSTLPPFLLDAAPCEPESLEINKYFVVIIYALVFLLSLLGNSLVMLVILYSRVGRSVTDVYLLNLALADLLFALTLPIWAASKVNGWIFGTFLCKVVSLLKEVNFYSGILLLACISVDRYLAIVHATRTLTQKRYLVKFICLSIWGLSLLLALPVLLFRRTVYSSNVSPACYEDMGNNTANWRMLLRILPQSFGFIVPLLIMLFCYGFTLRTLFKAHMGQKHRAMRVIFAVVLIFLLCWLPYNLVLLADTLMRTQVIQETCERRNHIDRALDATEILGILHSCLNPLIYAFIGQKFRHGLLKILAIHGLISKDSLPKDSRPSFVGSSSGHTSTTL

Q: With Cc1cc(C(=O)N2CC[C@@H](C)[C@H](c3cc(C(F)F)nc4ncnn34)C2)cc(C)n1 as the molecule, how does the residual activity (Rattus norvegicus [1]) read?
A: Its residual activity is 101%.

Q: What about the residual activity [2] of the same molecule?
A: Its residual activity is 107%.

Q: What about the residual activity [3] of the same molecule?
A: The residual activity was 109%.

Q: And the IC50 (Phosphodiesterase 3)?
A: The IC50 was 6.643 µM.

Q: What about the Ki (Phosphodiesterase 3) of the same molecule?
A: The Ki was 3.32 µM.

Q: What about the residual activity [4] of the same molecule?
A: The residual activity was 111%.

Q: What about the residual activity [5] of the same molecule?
A: The residual activity was 115%.

Q: What about the residual activity [6] of the same molecule?
A: Its residual activity is 103%.

Q: What about the residual activity [7] of the same molecule?
A: Its residual activity is 108%.

Q: And the residual activity [8]?
A: The residual activity was 109%.

Q: What about the IC50 [9] of the same molecule?
A: The IC50 was > 10 µM (not active).

Q: And the IC50 [10]?
A: The IC50 was > 10 µM (not active).

Q: What about the residual activity (Rattus norvegicus [11]) of the same molecule?
A: Its residual activity is 104%.

Q: What about the residual activity [12] of the same molecule?
A: The residual activity was 104%.

Q: What about the residual activity (Rattus norvegicus [13]) of the same molecule?
A: Its residual activity is 105%.

Q: What about the residual activity [14] of the same molecule?
A: The residual activity was 102%.

Q: And the residual activity [15]?
A: The residual activity was 55.1%.

Q: What about the residual activity [16] of the same molecule?
A: Its residual activity is 108%.

Q: What about the IC50 [17] of the same molecule?
A: Its IC50 is > 10 µM (not active).

Q: What about the residual activity [18] of the same molecule?
A: Its residual activity is 103%.

Q: What about the residual activity [19] of the same molecule?
A: Its residual activity is 95.3%.

Q: What about the residual activity [20] of the same molecule?
A: The residual activity was 102%.

Q: And the residual activity [21]?
A: Its residual activity is 108%.

Q: And the residual activity [22]?
A: The residual activity was 103%.

Q: And the residual activity [23]?
A: The residual activity was 117%.

Q: And the residual activity [24]?
A: The residual activity was 109%.

Q: What about the residual activity [25] of the same molecule?
A: Its residual activity is 100%.

Q: And the residual activity [26]?
A: Its residual activity is 94%.

Q: What about the residual activity [27] of the same molecule?
A: Its residual activity is 111%.

Q: What about the IC50 [28] of the same molecule?
A: The IC50 was 0.099 µM (not active).

Q: And the Ki [28]?
A: The Ki was 0.03 µM.

Q: And the residual activity [29]?
A: Its residual activity is 91%.
